According to paper PMC6321166, “Screening of a Library of Oligosaccharides Targeting Lectin LecB of Pseudomonas Aeruginosa and Synthesis of High Affinity Oligoglycoclusters” (Molecules, 2018):

Assays:
LecB = LecB (Pseudomonas aeruginosa, UniProt Q9HYN5); settings: cited from earlier work
LecB (PAO1) = target: T1, LecB (PAO1) (Pseudomonas aeruginosa, UniProt Q9HYN5); test: Competitive assay on microarray: glycans in solution compete with immobilized fucocluster F1 for Alexa 647-LecB; assay type: binding; design: key: A Grade A was given for oligosaccharides that were able to reduce 80 to 40% of the fluorescent signal at a concentration of 0.1 µM and to reduce it by more than 90% at concentrations of 1, 5 and 15 µM; Grade B indicated a decrease of fluorescence by 70% to 90% at 1 µM and more than 90% at 5 and 15 µM; Grade C corresponded to a decrease of 50 to 70% for 1 µM, around 80% for 5 µM and more than 90% at 15 µM; D indicated a decrease of less than 50% for 1 µM and 80% at 5 and 15 µM; When no inhibition was observed for the four concentrations tested, the grade was E; settings: glycan at 0.1, 1.0, 5.0 and 15 µM, Alexa 647-LecB 0.12 µM
T1 construct: purchased Elicityl
Procedure: F1 was immobilized on a DNA chip, thanks to its DNA sequence. The distance between two F1 on the surface was estimated to be nearly 50 nm. Therefore, the lectin LecB can only bind to one F1 glycocluster at the time. The binding of immobilized F1 to LecB was competed with each of the 156 glycans at four different concentrations (0.1, 1.0, 5.0 and 15 µM). For each glycan and each concentration, the alexa 647-LecB fluorescent signal was recorded and averaged over 16 spots, leading to four-point competition histograms (Figure 2 and Figure S2). 100% signal (see Figure 2) corresponded to the fluorescent signal measured with a reference assay under which no competition could occur. Glycans able to compete with F1 to bind LecB lead to a decrease of the fluorescent signal. Therefore, for a given glycan concentration, strong binding glycans lead to stronger decrease of the fluorescent signal so to lower percentages. Accordingly, tested glycans were classified qualitatively into 5 groups (A, B, C, D and E) depending to their ability to reduce the measured fluorescent signal at the four different concentrations (Figure 2 and Table 1). Grade A are stronger competitor than grade B which are stronger than grade C, and so on. A Grade A was given for oligosaccharides that were able to reduce 80 to 40% of the fluorescent signal at a concentration of 0.1 µM and to reduce it by more than 90% at concentrations of 1, 5 and 15 µM. Grade B indicated a decrease of fluorescence by 70% to 90% at 1 µM and more than 90% at 5 and 15 µM. Grade C corresponded to a decrease of 50 to 70% for 1 µM, around 80% for 5 µM and more than 90% at 15 µM. D indicated a decrease of less than 50% for 1 µM and 80% at 5 and 15 µM.
Cy3-oligonucleotide oligoglycoclusters F1 [46] […] In each microwell, 1.5 µL of the oligoglycocluster mixture was incubated for DNA-directed immobilization (DDI) for 3 h at 37 °C in a water-saturated atmosphere. The slides were washed with saline sodium citrate (SSC) 2× SDS 0.1% at 51 °C for 1 min, SSC 2× for 5 min and rinsed with water.
A library of 156 sugars extracted from biomass or produced by bacterial fermentation (see Supporting Information) issued from the OligoTech® (Elicityl) was screened in a competitive assay. The binding of the 156 carbohydrates was screened toward the lectin LecB (PAO1, Elicityl). Lectin was labeled as previously described using the Alexa Fluor® 647 Microscale Protein Labelling Kit (Invitrogen).
On each slide, nine oligosaccharides and α-L-fucose (as a control) were tested. The inhibitory effect of each oligosaccharide was determined at four concentrations 0.1, 1.0, 5.0 and 15 µM and at 0.5, 2.5, 5.0 and 7.5 mg/L for polymers: Aliginate, galacturonan, galactomannan, glucomannan, mannan, ulvan, xylan and the glucan. To this end, the labeled LecB lectin (0.12 µM final concentration), BSA (2%, final concentration), CaCl2 (7.5 µM, final concentration) in PBS 1× (pH 7.4) were mixed with the solutions of oligosaccharides (from the OligoTech®, Crolles, France). For each concentration, 1.5 µL of the mixture was poured into a microwell, where F1 was previously immobilized. The slides were incubated for 3 h at 37 °C in a water-saturated atmosphere. In each microwell, a competition between the two types of glycoclusters (F1) and oligosaccharide occurred to bind LecB. The microarrays were washed with 0.02% PBS-Tween20 for 5 min at room temperature. The fluorescence signal emitted by the complex glycocluster/Alexa 647-lectin was detected and an average of the mean fluorescence signal of 16 spots per glycocluster was calculated. The percentage of inhibition was calculated as follows: The alexa-647 fluorescent signal for a given sugar was normalized by the Alexa 647 fluorescent signal measured at 0.1 µM of fucose.

LecB from PA14 = target: LecB from PA14; design: method as in PMID 30155149; settings: read-out: dissociation constant (Kd); cited from earlier work
LecB from PA7 = target: LecB from PA7; design: method as in PMID 27303392; settings: read-out: dissociation constant (Kd); cited from earlier work
LecB from PAO1 = settings: read-out: dissociation constant (Kd); cited from earlier work

Chain of LecB (Q9HYN5 entry or part of it): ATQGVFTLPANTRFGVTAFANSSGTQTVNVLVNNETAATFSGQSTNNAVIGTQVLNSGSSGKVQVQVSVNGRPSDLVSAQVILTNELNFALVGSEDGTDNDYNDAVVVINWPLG
T1 sequence (Q9HYN5 entry or part of it): as above

Compound | Grade (ability to reduce the F1/LecB fluorescent signal) (LecB (PAO1)) | further results
Nc1ccc(S(N)(=O)=O)cc1 [sulfonamide] |  | Kd (LecB; inhibitors of LecB): 3.3 µM
Galα1-3(Galβ1-4GlcNAcβ1-3)2Galβ1-4Glc [Id. 45] | E | 
CC(=O)N[C@H]1[C@H](O[C@H]2[C@@H](O)[C@@H](CO)OC(O)[C@@H]2O)O[C@H](CO)[C@@H](O[C@@H]2O[C@H](CO)[C@H](O)[C@H](O)[C@H]2O)[C@@H]1O[C@@H]1O[C@@H](C)[C@@H](O)[C@@H](O)[C@@H]1O (stereo partly shown) [Id. 26, Galβ1-4(Fucα1-3)GlcNAcβ1-3Gal] | C (Grade C corresponded to a decrease of 50 to 70% for 1 µM, around 80% for 5 µM and more than 90% at 15 µM) | 
OC[C@H]1OC(O)[C@@H](O)[C@@H](O)[C@@H]1O (stereo partly drawn) [D-mannose] |  | interaction with LecB, times weaker than L-fucose (LecB): 25 times
CO[C@@H]1O[C@@H](C)[C@@H](O)[C@@H](O)[C@@H]1O [FucOMe] |  | Kd (LecB from PA14): 0.2 µM; Kd (LecB from PA7): 2.2 µM; Kd (LecB from PAO1): 0.43 µM
Galβ1-4(Fucα1-3)Glc [Id. 33] | B (Grade B indicated a decrease of fluorescence by 70% to 90% at 1 µM and more than 90% at 5 and 15 µM) | 
GalNAcα1-3(Fucα1-2)Gal [Id. 15] | D (D indicated a decrease of less than 50% for 1 µM and 80% at 5 and 15 µM) | 
Neu5Acα2-3Galβ1-4(Fucα1-3)GlcNAcβ1-3Gal [Id. 29] | C (Grade C corresponded to a decrease of 50 to 70% for 1 µM, around 80% for 5 µM and more than 90% at 15 µM) | 
O=C[C@H](O)[C@@H](O)[C@@H](O)[C@H](O)CO [D-galactose] |  | recognition by LecB (LecB): not recognized
Fucα1-2Galβ1-3(Fucα1-4)GlcNAcβ1-3Gal [Id. 32] | C (Grade C corresponded to a decrease of 50 to 70% for 1 µM, around 80% for 5 µM and more than 90% at 15 µM) | 
CC(=O)N[C@H]1[C@H](O[C@H]2[C@@H](O)[C@@H](CO)OC(O)[C@@H]2O)O[C@H](CO)[C@@H](O[C@@H]2O[C@@H](C)[C@@H](O)[C@@H](O)[C@@H]2O)[C@@H]1O[C@@H]1O[C@H](CO)[C@H](O)[C@H](O)[C@H]1O (stereo partly shown) [Id. 30, Galβ1-3(Fucα1-4)GlcNAcβ1-3Gal] | A (A Grade A was given for oligosaccharides that were able to reduce 80 to 40% of the fluorescent signal at a concentration of 0.1 µM and to reduce it by more than 90% at concentrations of 1, 5 and 15 µM) | 
